# Data from publication PMC4585840 (Scientific Reports, 2015).
# Positions count from the first letter of the chain named.
# Columns and labels:
# RCasp3 = target: T1, RCasp3 (Homo sapiens, UniProt P42574); test: in vitro fluorogenic Casp3 activity assay (Ac-DEVD-AFC); assay type: biochemical; settings: 20 nM RCasp3; 1 μM Q-VD-OPh or 0.1 μM bortezomib; Fig. 5c
# T1 construct: Active Casp6 and Casp3 represented >99% of the purified enzyme; purchased Enzo Lifesciences
# T1 sequence (P42574 29-175 limits assumed): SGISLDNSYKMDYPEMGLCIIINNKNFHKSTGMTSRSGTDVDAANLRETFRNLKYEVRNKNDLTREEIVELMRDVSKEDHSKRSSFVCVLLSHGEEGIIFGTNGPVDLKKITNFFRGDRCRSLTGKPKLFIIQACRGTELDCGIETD
# T1 sequence (P42574 176-277 limits assumed): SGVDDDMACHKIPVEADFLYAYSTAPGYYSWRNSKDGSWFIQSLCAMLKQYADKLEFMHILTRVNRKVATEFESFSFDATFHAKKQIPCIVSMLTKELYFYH
# [1] = target: T2, DEVDase activity in mouse liver protein extracts (Mus musculus, UniProt P70677); test: DEVDase activity in mouse liver protein extracts with added inhibitors; assay type: biochemical; settings: inhibitor added to extracts: 1 μM Q-VD-OPh, 0.1 μM bortezomib or 0.1 μM epoxomicin
# T2 construct: Casp3 activity was assessed in liver protein extracts from mice; from tissue; host or cells: mouse liver (C57BL6/J), protein extracts
# T2 sequence (P70677 29-175 limits assumed): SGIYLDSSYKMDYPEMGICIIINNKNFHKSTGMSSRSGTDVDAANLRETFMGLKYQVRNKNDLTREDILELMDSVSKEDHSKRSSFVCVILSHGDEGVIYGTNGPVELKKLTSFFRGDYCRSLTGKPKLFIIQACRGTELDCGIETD
# T2 sequence (P70677 176-277 limits assumed): T1 sequence (P42574 176-277 limits assumed) with V3T, D5E, D6E, H10Q, A46S, Q50L, D53H, F77L, A79S
# Experimental: (§1) Activity assays for RCasp1 (Biovision, Millpitas, CA, USA) and RCasp3 (Enzo Lifesciences) used Z-Tyr-Val-Ala-Asp-7-Amino-4-trifluoromethylcoumarin (z-YVAD-AFC: Enzo LifeSciences,), and Ac-Asp-Glu-Val-Asp-7-Amino-4-trifluoromethylcouramin (Ac-DEVD-AFC: Enzo LifeSciences), respectively. To confirm that these substrates report caspase activity and not proteasomal caspase-like enzyme activity, 1 μM pan-caspase inhibitor, Q-VD-OPh (Sigma-Aldrich) or 0.1 μM proteasome inhibitor, bortezomib (Calbiochem, MA, USA) were tested on 20 nM RCasp3 or 40–60 μg of mouse liver protein extracts.
# The caspase-like activity of the proteasome was measured using 10 μM Ac-Nle-Pro-Nle-Asp-AMC (Ac-nLPnLD-AMC, Enzo Lifesciences) as described for caspase activity assays except for the use of 10 mM DTT and a 7-amino-4-methylcoumarin (AMC, Sigma-Aldrich) standard curves. Mouse liver protein extracts were treated with 0.1 μM of epoxomicin (Enzo Lifesciences), bortezomib, 1 μM of Q-VD-OPh, or equal volumes of DMSO for 20 mins on ice before measuring proteasome or caspase activities.
# RCasp6 [2] = target: T3, RCasp6 (Homo sapiens, UniProt P55212); test: inhibitor kinetic studies (Michaelis-Menten / Lineweaver-Burk) on RCasp6; assay type: biochemical
# T3 construct: The zymogen is cleaved at three distinct sites to remove the prodomain and linker regions in order to obtain an active enzyme; His tag (C); made in house; host or cells: E. coli BL21 (DE3)pLysS
# T3 sequence (P55212 24-179 limits assumed): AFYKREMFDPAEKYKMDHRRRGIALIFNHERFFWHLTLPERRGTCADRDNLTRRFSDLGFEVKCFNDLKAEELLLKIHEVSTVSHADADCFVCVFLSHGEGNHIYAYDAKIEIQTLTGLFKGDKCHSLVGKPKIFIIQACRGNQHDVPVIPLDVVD
# T3 sequence (P55212 194-293 limits assumed): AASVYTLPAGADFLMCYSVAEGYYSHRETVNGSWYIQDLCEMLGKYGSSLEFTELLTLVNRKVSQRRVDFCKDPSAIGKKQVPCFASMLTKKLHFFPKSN
# RCasp6 [3] = target: T3, RCasp6; test: in vitro tubulin cleavage assay with RCasp6; assay type: biochemical; settings: 20 nM RCasp6, 10 μM DTT, 10 hours, western blot densitometry; read-out: IC50, cleavage of tubulin by RCasp6 (Tub∆Casp6 relative to total tubulin)
# Experimental: Phenothiazines were mixed with 20 nM RCasp6 or RCasp3, 10 μM DTT, and 7.5 nM BSA in SB and 36 μg HCT116 protein extracts added before incubation at 37 °C for 10 hours, western blotting, and densitometry for tubulin-cleaved by Casp6 (Tub∆Casp6) and total tubulin as described in the western blot section. The IC50 was determined by a non-linear regression fit for log inhibitor vs caspase activity with a Hill slope of −1 using GraphPad Prism 5.0.
# (§2) The 10630 (1:10,000) and GN60622 (1:10,000) neoepitope antibodies against the p20 subunit of active Casp6[16] and Tub∆Casp6[23], respectively, were generated in our laboratory. The β-actin clone AC-15 (1:5000, Sigma-Aldrich), Casp6 p10 clone B93-4 (1:250, BD Canada, Mississauga, ON, CA), Casp3, and full-length α-tubulin (1:1000, Cell Signaling Technology Inc., Danvers, MA, USA) antibodies were diluted in 5% non-fat dry milk in Tris-buffered saline containing 0.1% Tween-20 (Sigma-Aldrich). […] Secondary anti-mouse conjugated to alkaline phosphatase (Jackson Immunoresearch Laboratories Inc., West Grove, PA) was developed with nitro-blue tetrazolium (ThermoSci) and 5-bromo-4-chloro-3′-indolyphosphate (ThermoSci).
# HCT116 cells = test: cell viability (microscopy and MTT) in HCT116 cells; assay type: cell-based, human; settings: 2 hours
# Experimental: (§3) HCT116 cells, plated at a density of 1 × 10^5 cells/well and human neurons, plated at a density of 6 × 10^6 cells/well on poly-L-lysine were treated with PBS or phenothiazines for 2 hours. The media was replaced before acquiring images with the Nikon Eclipse Ti microscope and the NIS-Elements (Version 3.10) software. MTT assays: Cells were plated in 96-well plates at 1 × 10^4 or 1 × 10^5 cells per well for 24 hours before treatments with phenothiazines or PBS. After 2 hours, fresh media containing […] MTT (3-(4,5-dimethylthiazol-2-yl)-2,5-diphenyltetrazolium bromide) (Sigma-Aldrich) was added and the cells were incubated for 4 hours at 37 °C in 5% CO2. The media was removed, formazan crystals were dissolved in DMSO, and the absorbance was measured at 560 nm and 670 nm using the BioTek Synergy H4 plate reader.
# Casp6 [4] = target: T4, Casp6 (Homo sapiens, UniProt P55212); test: Casp6 activity in Casp6p20p10-transfected HCT116 cells; assay type: cell-based; set-up: for active Casp6p20 subunit (p20), full length Casp6 lacking its pro-domain; Casp6p20p10 (p20p10); expressed in transfected cells; host or cells: HCT116 human colon carcinoma cells; settings: transfected HCT116, 2 hrs; 100 μM and 1 mM methylene blue, 50 μM azure A, 10 μM and 100 μM azure B
# T4 sequence (P55212 24-179 limits assumed): T3 sequence (P55212 24-179 limits assumed)
# T4 sequence (P55212 194-293 limits assumed): T3 sequence (P55212 194-293 limits assumed)
# Experimental: as §1
# Human colon carcinoma (HCT116) cells, cultured as recommended (ATCC: Manassas, VA, USA), were transfected with 1 μg pCep4βCasp6p20p10 and 8 μg polyethyleneimine (Polysciences Inc., Warrington, PA, USA), and grown 24 hrs before treatment with PBS and phenothiazines for 2 hours. Human primary neurons were cultured from fetal brain cortical areas obtained under ethical guidelines and approved by the McGill University’s institutional review board as previously described. Human primary neurons plated in poly-L-lysine -coated 6-well plates at a density of 3 × 10^6 cells/mL were serum-deprived for 2 hours in the presence of phenothiazines or an equivalent volume of PBS. Proteins were harvested in cell lysis buffer (CLB; 50mM HEPES, 0.1% CHAPS, 0.1mM EDTA).
# as §2
# human primary neurons = test: cell viability (microscopy) in human primary neurons; assay type: cell-based; settings: phase contrast microscopy, 2 hours
# Experimental: as §3
# Casp6 [5] = target: T4, Casp6; test: Casp6 activity in serum-deprived human primary neuron cultures; assay type: cell-based; set-up: endogenous in cells; host or cells: human primary neurons from fetal brain cortex; settings: serum-deprived neurons, 2 hrs, 100 μM methylene blue, 50 μM azure A, 10 μM azure B
# RCasp6 [6] = target: T3, RCasp6; test: in vitro fluorogenic Casp6 activity assay (Ac-VEID-AFC); assay type: biochemical; settings: 10 μM DTT; Fig. 1c
# [7] = target: T5, caspase-like activity of the proteasome (Mus musculus, UniProt Q60692); test: proteasome assay (Ac-nLPnLD-AMC); assay type: biochemical; settings: mouse liver protein extracts, 0.1 μM bortezomib; supplementary Fig. S2
# T5 construct: nLPnLDase activity in mouse liver protein extracts; from tissue; host or cells: mouse liver protein extracts
# T5 sequence (Q60692 1-238): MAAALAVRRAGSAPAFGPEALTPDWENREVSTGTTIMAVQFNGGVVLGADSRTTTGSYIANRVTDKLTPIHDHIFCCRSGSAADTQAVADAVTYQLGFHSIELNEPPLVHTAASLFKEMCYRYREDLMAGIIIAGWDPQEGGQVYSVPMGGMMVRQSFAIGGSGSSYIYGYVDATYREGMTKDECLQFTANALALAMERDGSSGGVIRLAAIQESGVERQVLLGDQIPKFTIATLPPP
# Experimental: The caspase-like activity of the proteasome was measured using 10 μM Ac-Nle-Pro-Nle-Asp-AMC (Ac-nLPnLD-AMC, Enzo Lifesciences) as described for caspase activity assays except for the use of 10 mM DTT and a 7-amino-4-methylcoumarin (AMC, Sigma-Aldrich) standard curves. Mouse liver protein extracts were treated with 0.1 μM of epoxomicin (Enzo Lifesciences), bortezomib, 1 μM of Q-VD-OPh, or equal volumes of DMSO for 20 mins on ice before measuring proteasome or caspase activities. […]
# equated at 100% activity of the enzyme. Activity assays for recombinant Casp3 was done similarly to recombinant Casp6, except the substrate used was Ac-Asp-Glu-Val-Asp-7-Amino-4-trifluoromethylcouramin (Ac-DEVD-AFC: Enzo Life Sciences, NY, USA).
# Proteasome assay: The caspase-like activity of the proteasome was measured using the substrate Ac-Nle-Pro-Nle-Asp-AMC (Enzo LifeSciences, NY, USA) at a final concentration of 10 µM in Stennicke’s buffer in the presence of 10 mM DTT. […]
# Statistical Analysis: For Caspase-3 activity assays, data represent the mean ± SEM of 3 livers from 3 animals and was analyzed using a one-way ANOVA with Dunnett’s post hoc test (*** p < 0.001 in DMSO, and ### p < 0.001 in bortezomib) comparing all samples to LPS/GALN-treated mice in the absence of methylene blue, while proteasome assays were analyzed using […]
smiles,measurement,setting,value
CC(C)[C@H](NC(=O)c1ccc2ccccc2n1)C(=O)N[C@@H](CC(=O)O)C(=O)COc1c(F)cccc1F [Q-VD-OPh],RCasp3 activity in vitro,RCasp3,abrogated
same,DEVDase activity in LPS/GALN-treated mouse liver protein extracts,[1],abrogated
"CN(C)c1ccc2nc3ccc(N)cc3[s+]c2c1 [azure A, (7-aminophenothiazin-3-ylidene)-dimethylazanium;chloride]",mode of inhibition,"RCasp6 [2]; Lineweaver Burk plot, Km increasing, Vmax the same",competitive
same,Ki,"RCasp6 [2]; competitive inhibition model, nonlinear regression, Ac-VEID-AFC substrate, 10 nM RCasp6",420 nM
same,IC50,RCasp6 [3],500 nM
same,concentration above which toxicity was shown,"HCT116 cells; HCT116, MTT assay",above 50 μM
same,concentration at which cells retained morphology and confluence comparable to PBS-treated controls,"HCT116 cells; HCT116, phase contrast microscopy",50 μM
same,Casp6 activity on the Ac-VEID-AFC peptide substrate,Casp6 [4],trend towards inhibition but it did not reach statistical significance
same,concentration above which cell body size and axonal fragmentation increased,human primary neurons,above 50 μM
same,VEIDase activity,Casp6 [5],significantly inhibited
same,Tub∆Casp6/Tub levels,Casp6 [5]; vs PBS-treated serum-deprived neurons,significantly decreased
same,concentration necessary for a significant inhibition of Casp6 activity,RCasp6 [6],10 nM
same,inhibition of Casp6 activity,RCasp6 [6],inhibited Casp6 activity in a dose dependent manner
CC(C)C[C@H](NC(=O)[C@H](Cc1ccccc1)NC(=O)c1cnccn1)B(O)O [bortezomib],RCasp3 activity in vitro,RCasp3,did not inhibit
same,nLPnLDase proteasomal activity,[7],significantly inhibited
CC[C@H](C)[C@H](NC(=O)[C@H]([C@@H](C)CC)N(C)C(C)=O)C(=O)N[C@H](C(=O)N[C@@H](CC(C)C)C(=O)[C@@]1(C)CO1)[C@@H](C)O [epoxomicin],DEVDase activity in LPS/GALN-treated mouse liver protein extracts,[1],nor was Casp3 DEVDase activity affected
